Reference: US20090123420A1, “Regulation of T Cell-Mediated Immunity by D Isomers of Inhibitors of Indoleamine-2,3-Dioxygenase” (Medical College of Georgia Research Institute, Inc, priority 2003, published 2009)
“Also recorded” adds a separate entry of the source. No end group written: not given here.

Experiments:
[1] = tested on: IDO; experiment: Recall MLR of primed recipient LN cells with 1MT added to the MLR; type: cell-based, mouse; conditions: responders from recipients of TDLN DCs
[2] = tested on: B16F10 melanomas; experiment: Established B16F10 melanoma model, 1MT with radiation or cyclophosphamide; type: in vivo, mouse; conditions: for effect on tumor growth, 1MT alone: established tumor, treatment from day 7, SQ pellets
Procedure: FIGS. 11A-11D. Administration of 1-MT enhances immune-mediated host anti-tumor effect when administered with radiation or cyclophosphamide. Mice were injected subcutaneously (SQ) with 4×10^4 B16F10 cells. […] Control mice received vehicle pellets without drug.
Mouse tumor models. C57BL/6 mice (Jackson, Bar Harbor, Me.) were implanted with tumors in the anteriomedial thigh, using either 4×10^4 B16F10 (ATCC, Bethesda, Md.) or 1×10^6 B78H1•GM-CSF. B78H1•GM-CSF cells recruit large numbers of APCs (Dranoff et al., Proc. Natl. Acad. Sci. USA, 1993; 90:3539) and were originally designed as a vaccine strategy. GMCSF-transfected tumors are immunogenic if lethally irradiated prior to injection (Borrello et al., Hum. Gene Ther., 1999; 10:1983), but live tumors grow progressively and create systemic tolerance to tumor antigens (Bronte et al., J. Immunol., 1999; 162:5728). Thus, B78H1•GM-CSF represented an excellent model for our studies, since it recruited many DCs but nevertheless […]. Tumors were 10-12 days after implantation, well prior to the stage of large, metastatic tumors (day 21) in which the hosts began to show alteration in spleen and non-tumor-draining LNs.
Not unexpected, given that the tumor had already been allowed to create tolerance in the host.

[3] = tested on: Lewis Lung carcinoma (LLC); conditions: mouse, in vivo; cited from earlier work
[4] = tested on: P815 with IDO; conditions: concomitant administration; cited from earlier work
[5] = biological target: IDO (Mus musculus, UniProt P28776); experiment: MLR with sorted tumor-draining lymph node (TDLN) cells as stimulators and BM3 responder T cells; conditions: 10x
IDO (Mus musculus, UniProt P28776), sequence (P28776 whole entry): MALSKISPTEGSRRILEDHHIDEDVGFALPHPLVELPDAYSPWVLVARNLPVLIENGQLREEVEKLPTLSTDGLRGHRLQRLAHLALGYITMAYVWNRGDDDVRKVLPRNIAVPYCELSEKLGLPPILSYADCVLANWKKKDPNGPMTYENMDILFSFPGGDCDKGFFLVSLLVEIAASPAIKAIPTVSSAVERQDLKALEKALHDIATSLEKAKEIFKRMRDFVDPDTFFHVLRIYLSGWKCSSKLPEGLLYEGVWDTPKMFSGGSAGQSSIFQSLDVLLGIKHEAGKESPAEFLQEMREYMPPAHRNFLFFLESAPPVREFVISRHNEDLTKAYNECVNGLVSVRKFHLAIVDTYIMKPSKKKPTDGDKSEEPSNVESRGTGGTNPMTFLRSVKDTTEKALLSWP
Procedure: T cell activation in MLR. BM3 responder T cells were prepared from spleen by nylon-wool enrichment. Stimulators (sorted DCs or unfractionated TDLN) were mixed with 1×10^5 BM3 responder cells in 200 ul IMDM at the ratios shown in each figure. After 3 days, proliferation was measured by 4-hour thymidine incorporation assay.
MLRs were thus “two-way” reactions. However, the small number of sorted DCs used as stimulators contributed negligible proliferation compared to the large population of TCR-transgenic responder cells. Since the relevant readout was dominant suppression, the two-way MLR design presented no problem in interpretation.
Pooled draining LN cells (4 nodes) were stained and fractionated by 4-color MoFlo cell sorting for the two populations shown in the schematic of FIG. 5B. All other cells were collected in a third fraction. Each fraction was then used as stimulators in MLRs, using 50,000 BM3 T cells as responders. The number of stimulators used in each MLR was adjusted to be the same as would have been present in 50,000 cells of the original LN preparation, based on the measured percentage of each sorted fraction. Thus, 500 cells of the sorted B220^+ CD11c^+ fraction were added per well, and 1500 cells of the CD25^+ CD4^+ fraction, while 48,000 cells of the “all other” fraction were used.

[6] = biological target: IDO (Homo sapiens, UniProt P14902); experiment: Allogeneic mixed-leukocyte reaction (MLR) with IDO-expressing human monocyte-derived DCs, T cell proliferation by thymidine incorporation; conditions: 250 uM in culture medium
IDO (Homo sapiens, UniProt P14902), sequence (P14902 whole entry): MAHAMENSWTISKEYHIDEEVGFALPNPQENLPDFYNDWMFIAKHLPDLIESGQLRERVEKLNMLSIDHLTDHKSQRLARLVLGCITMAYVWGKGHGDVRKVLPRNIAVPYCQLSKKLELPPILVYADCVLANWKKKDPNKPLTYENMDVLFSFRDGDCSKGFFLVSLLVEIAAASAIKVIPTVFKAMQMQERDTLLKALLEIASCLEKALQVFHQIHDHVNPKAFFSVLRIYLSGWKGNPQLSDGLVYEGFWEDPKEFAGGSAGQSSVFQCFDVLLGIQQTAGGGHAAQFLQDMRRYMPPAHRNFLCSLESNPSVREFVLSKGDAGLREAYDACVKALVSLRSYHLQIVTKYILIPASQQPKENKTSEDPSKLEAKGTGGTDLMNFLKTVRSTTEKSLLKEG
Procedure: Replicate MLRs received each compound at the concentrations shown. Bars represent T cell proliferation at the end of the 5-day activation period.
After 5 days, proliferation was measured by 4 hour thymidine incorporation assay. “V”-bottom culture wells (Nunc) were used in MLR assays to maximize cell-cell contact.
DCs were used as stimulators in allogeneic mixed-leukocyte reactions (MLRs), with allogeneic lymphocytes as responder cells.

[7] = Comparative plasma pharmacokinetics of the stereo-isomers of 1-MT; type: in vivo, mouse
Procedure: Studies were conducted in conventional mice after IV, PO and SC doses of 50 mg/kg, and IP doses of 25 mg/kg, 50 mg/kg, and 100 mg/kg.

[8] = Pilot tissue biodistribution of D and L isomers after DL racemic mixture; type: in vivo, mouse; conditions: DL racemic mixture 10 mg/day SQ pellets, 72 hour infusion
Description: The results noted with spleen are particularly relevant because it is a lymphoid organ, and thus likely to be similar to tumor-draining lymph nodes.

[9] = biological target: rabbit polyclonal anti-human IDO antibody (raised against the KLH-conjugated peptide of SEQ ID NO:1, affinity purified); experiment: flow cytometry of IFNγ-activated monocyte-derived macrophages; anti-IDO antibody pre-adsorbed with the immunizing peptide, which competes with IDO

Molecule: Cn1cc(C[C@H](N)C(=O)O)c2ccccc21 [1MT, 1-methyl-tryptophan]
- suppression in recall MLRs [1]: no effect; also recorded: not restored
- effect of 1MT over cyclophosphamide alone in immunodeficient hosts ([2]; RAG1-knockout hosts): no enhancing effect
- effect on tumor growth, 1MT alone [2]: no effect
- tumor outgrowth [3]: significantly delayed tumor outgrowth
- IDO-mediated prevention of tumor rejection by pre-immunized hosts [4]: substantially reversed

Molecule: Cn1cc(CC(N)C(=O)O)c2ccccc21 (racemic) [DL racemic form of 1MT, reference compound]
- tumor growth, 1MT with cyclophosphamide ([2]; 20 mg per mouse per day DL racemic, cyclophosphamide 150 mg/kg x 1 dose): significantly reduce tumor growth
- tumor growth, 1MT with radiation ([2]; 20 mg per mouse per day DL racemic, total-body radiation 500 cGy single dose): significantly reduce tumor growth
- effect on tumor growth, 1MT alone [2]: no effect

Molecule: N[C@@H](Cc1c[nH]c2ccccc12)C(=O)O [L-tryptophan]
- suppression by pDCs with excess L-tryptophan ([5]; 250 uM, IDO-sufficient host): abrogated; also recorded: abrogates suppression
- effect of excess L-tryptophan with IDO-knockout pDCs ([5]; TDLN cells from IDO-knockout mice): no effect
- DC-mediated inhibition of T cell proliferation with supra-physiologic tryptophan [6]: completely reversed

Molecule: Cn1cc(C[C@H](N)C(=O)O)c2ccccc21 [L 1-MT, reference compound]
- oral bioavailability ([7]; PO): 105%

Molecule: Cn1cc(C[C@@H](N)C(=O)O)c2ccccc21 [1-methyl-D-tryptophan]
- apparent volume of distribution ([7]; D versus L isomer): relatively greater
- bioavailability ([7]; mouse, plasma, po, 50 mg/kg): 64%
- anti-tumor effect of combination with radiation ([2]; replicate radiation studies): enhanced effect over radiation alone
- accumulation in liver, D versus L isomer [8]: at least equal, and possibly preferential, accumulation
- distribution into muscle and spleen, D versus L isomer [8]: equivalent distribution
- levels in plasma and in brain, D versus L isomer [8]: lower levels

Molecule: LIESGQLRERVEKLNMLC (also: conjugated to keyhole limpet carrier protein for immunisation) [immunizing peptide … (SEQ ID NO:1), based on human IDO]
- reduction of flow cytometry signal [9]: > 95%
